Experimental data: article PMC12022975, “NMR^2-Based Drug Discovery Pipeline Presented on the Oncogenic Protein KRAS” (Journal of the American Chemical Society, 2025)
Like-named read-outs stand apart in the source and are kept apart here.

Experiments:
[1] = biological target: T1, KRAS G12V GMP-PNP (Homo sapiens, UniProt P01116, G12V); test: STD-NMR screening of the DSI-poised fragment library; assay type: binding; conditions: STD-NMR hit mark; mixtures of six, 600 μM per ligand, 12 μM KRAS; hit if S/N ratio greater than 5
T1 construct: His-tag (TEV-cleavable) (cleaved yes); made in house; host or cells: E. coli BL21* DE3
Description: The STD-NMR and [^15N,^1H]-HSQC screening of the DSI-poised fragment library was performed on a Bruker Avance III HD 600 MHz spectrometer equipped with a cryoprobe and SampleJet. […] Analysis was performed in TopSpin 4.1 and CcpNMR 3.1.[28]
The DSI-poised fragment library comprises 890 molecules, designed such that analogues are readily accessible on the market and can be quickly synthesized.

[2] = biological target: T1, KRAS G12V GMP-PNP; test: Ligand-titrated [15N,1H]-HSQC affinity determination (TITAN line shape analysis); assay type: binding
Description: A detailed summary for each ligand can be found in the Supporting Information. The NMR data were processed with nmrpipe, and the affinity was analyzed with TITAN.[29]
The amide signals of L6, V7, T74, and G75 were analyzed using the line shape analysis software TITAN.[29] Additionally, the chemical shift perturbation binding curve was analyzed.
MHz spectrometer equipped with a cryoprobe and SampleJet.
4, 5, 9: [15N, 1H]-sofastHSQC experiments were done on a Bruker Ascend console NEO 500 MHz with a prodigy probe head
titrated to ~100 µM KRAS.
spectrometer equipped with a cryoprobe.
Table SI1: Summary of all [1H, 1H] - NOESY spectra measured for all compounds which a NMR2
(1H) [MS] (1H) [MS] [MS] TIME [MS] [MHZ] TIME PER NOESY [H]

[3] = TITAN analysis of L6, V7, T74, G75 amide signals, no saturation reached, interpret with caution, read-out: KD

SMILES | STD [1] | Kd [2, 3] | Kd [2]
COc1ccc2[nH]cc(CN(C)C)c2c1 [compound 13] | √ | – | –
O=C(O)/C=C/c1c[nH]c2ccccc12 [compound 16] | – | 4.5 mM | –
O=C(CN1CCCC1)Nc1cccc(Cl)c1 [compound 12] | √ | – | –
CS(=O)(=O)Cc1nc2ccccc2[nH]1 [compound 11] | √ | – | –
Nc1ccc(S(=O)(=O)Nc2ccccc2)cc1 [compound 7] | √ | 5.9 mM | –
N=c1sccn1CC(=O)Nc1ccc(F)cc1 [compound 4] | √ | 10 mM | –
COc1ccc2sc(N)nc2c1 [compound 10] | √ | – | 5.9 mM
Cc1[nH]ncc1CNc1ccccc1F [fragment 5, Cc1n[nH]cc1CNc(cccc1)c1F] | √ | 5.2 mM | –
CNCc1cnn(-c2ccccc2)c1 [compound 9] | √ | 3.3 mM | –
Cc1cc2cc[nH]c2cc1C [compound 14] | – | 3.2 mM | –
c1coc(CNc2nc3ccccc3[nH]2)c1 [fragment 1, C(c1ccco1)Nc1nc(cccc2)c2[nH]1] | √ | 1.2 mM | –
COc1ccc(C)cc1NC(=O)Nn1cnnc1 [compound 6] | √ | 15 mM | –
